SMILES strings stand for the structures.

Data set [1] is described as follows: Body weight and weight gain of mice on cholesterol-enriched diet, 12 weeks of treatment. It counts as in vivo, C57bl6J male mice. The conditions noted are these: diet rich in cholesterol. The procedure:
(§1) […] C57bl6J male mice (8 weeks of age) from breeding company Janvier (Le Genest Saint Isle, France) are distributed in cages and housed in a room with controlled humidity and temperature (23±0.5° C.). They are subject to a 12/12-hr light cycle (light at 7 am). During one week of adaptation, the animals have free access to drinking water and food, and are then randomized into 5 groups of 12 animals using as selection criteria weight, triglyceridemia and cholesterolemia.
(§2) • a control group receiving a diet enriched in cholesterol (see composition in Table 1) • a group treated with the reference, atorvastatin, 10 mg/kg/day, • a group receiving a 125 ng/kg/day concentration of Lipistase, • a group receiving PS (a mixture of phytosterols and stanols) to the total dose of 1.2 g/kg/day, • a group receiving a combination of Lipistase and phytosterols.
(§3) All products (reference, study products and combination of products) are administered in the diet enriched in cholesterol, and administration to animals lasts three months. Lipistase, being in the form of a soybean oil suspension, all diets receive the same volume (1.8% w/w) of neutral soybean oil than that required to provide the desired amount of Lipistase.
The assessment of weight and food intake is carried out once a week. […]

Data set [2] has as its system C57B16J mice submitted to diet rich in cholesterol. Kind of data set: Non-fasting insulinemia after 12 weeks. In kind it is in vivo, C57bl6J male mice. The conditions noted are these: after 12 weeks of treatment. The procedure:
as §1, §2
(§4) All products (reference, study products and combination of products) are administered in the diet enriched in cholesterol, and administration to animals lasts three months. Lipistase, being in the form of a soybean oil suspension, all diets receive the same volume (1.8% w/w) of neutral soybean oil than that required to provide the desired amount of Lipistase. […]

For data set [3] the test system is unchanged. In words: Non-fasting glycemia after 12 weeks. The following applies: after 12 weeks of treatment. It counts as in vivo, C57bl6J male mice. The procedure:
as §1
• a control group receiving a diet enriched in cholesterol (see composition in Table 1) • a group treated with the reference, atorvastatin, 10 mg/kg/day, • a group receiving a 125 ng/kg/day concentration of Lipistase, • a group receiving PS (a mixture of phytosterols and stanols) to the total dose of 1.2 g/kg/day, • a group receiving a combination of Lipistase and phytosterols. […]
Euthanasia is performed after 3 months of treatment (12 weeks). A blood test is performed, and the following parameters are measured on an automated Konelab (Thermo Fisher, France): total cholesterol (Thermo Fisher, 981,813), triglycerides (Thermo Fisher, 981,786), glucose (Thermo Fisher, 981,780), ALAT (Thermo Fisher, 981,769), ALP (Thermo Fisher, 981,771), ASAT (Thermo Fisher, 981,771).

Data set [4] has the same test system. Kind of data set: Distribution of cholesterol in lipoproteins by FPLC. It counts as in vivo, C57bl6J male mice. The conditions noted are these: VLDL fraction. As to the method: as §1, §2
All products (reference, study products and combination of products) are administered in the diet enriched in cholesterol, and administration to animals lasts three months. […]
The determination of lipoprotein profiles is carried out by FPLC (Synelvia, France) after two and three months of treatment and the amounts of cholesterol and triglycerides are measured in the different fractions (HDL, LDL and VLDL).

The test system is the same in data set [5]. In words: Adiposity index and distribution of white adipose tissue after 12 weeks. In kind it is in vivo, C57bl6J male mice. The following applies: after 12 weeks of treatment. As to the method: as §1, §2, §3
Animals are sacrificed by cervical dislocation; liver, muscles (gastrocnemius and soleus), heart are quickly dissected, weighed and frozen in liquid nitrogen, then stored at −80° C. The various deposits of fat tissues (subcutaneous, peri-renal, inguinal and mesenteric) are removed and weighed to calculate the adiposity index.

The test system is the same in data set [6]. In words: Index of adiponectin secretion by adipose tissue. The conditions noted are these: adiponectin concentration (μg/ml)/mass of adipose tissue (g). In kind it is in vivo, C57bl6J male mice. The procedure:
as §1, §2, §4

The conditions of data set [7]: intestinal tract; cited from earlier work.

`CC(C)c1c(C(=O)Nc2ccccc2)c(-c2ccccc2)c(-c2ccc(F)cc2)n1CC[C@@H](O)C[C@@H](O)CC(=O)O` [atorvastatin]: in data set [1], the “Body weight compared to control animals (FIG. 1)” value is recorded as “significantly lower” and the “Weight gain (FIG. 2)” value was “reduction of weight gain”. Besides, in data set [2], the “Insulin levels, percentage change compared to controls HC (FIG. 14)” value is −50% and the “Insulinemia, circulating rate (FIG. 14)” value came out at 2.79 ± 0.33 ng/mL. Also, in data set [3], the “Glycemia / blood sugar, effect in words” value is “at the same level than that of the control animals”. Besides, the “Free cholesterol in VLDL, percentage change compared to controls HC (FIG. 11b)” value in data set [4] is on record as −35%. In data set [5], the “Adiposity index, effect in words (FIG. 5)” value is recorded as “reduction of this index”; the “Epididymal fat, percentage change compared to controls HC (FIG. 6)” value is listed as −46%; the “Perirenal (deep) fat, percentage change compared to controls HC (FIG. 6)” value is recorded as −48%; the “Subcutaneous fat, percentage change compared to controls HC (FIG. 6)” value is listed as −57%. For the same compound, the “Adiponectin secretion index, effect in words (FIG. 9)” value in data set [6] was “significantly elevated”.
On to `CC(C)CCC[C@@H](C)[C@H]1CC[C@H]2[C@@H]3CC=C4C[C@@H](O)CC[C@]4(C)[C@H]3CC[C@]12C` [cholesterol], for which the Intestinal absorption in data set [7] is 50%.
Take `CC[C@H](CC[C@@H](C)[C@H]1CC[C@H]2[C@@H]3CC[C@H]4C[C@@H](O)CC[C@]4(C)[C@H]3CC[C@]12C)C(C)C` [sitostanol]: in data set [7], the Intestinal absorption is listed as 1%.
As to `CC[C@H](CC[C@@H](C)[C@H]1CC[C@H]2[C@@H]3CC=C4C[C@@H](O)CC[C@]4(C)[C@H]3CC[C@]12C)C(C)C` [sitosterol], the Intestinal absorption in data set [7] is given as 4-7%.

Values taken from patent US8518459B2, “Composition for regulating lipid metabolism” (Actigenomics S.A., priority 2009, dated 2013).
